Measured values published in ChEMBL document CHEMBL5131552, “Diazepinone Compounds as Sppl2a Inhibitors for Treating Autoimmune Diseases and Lymphomas” (ACS Med Chem Lett, 2022).

Target: T1, Signal peptide peptidase-like 2A (Homo sapiens, UniProt Q8TCT8)
T1 sequence (Q8TCT8 whole entry): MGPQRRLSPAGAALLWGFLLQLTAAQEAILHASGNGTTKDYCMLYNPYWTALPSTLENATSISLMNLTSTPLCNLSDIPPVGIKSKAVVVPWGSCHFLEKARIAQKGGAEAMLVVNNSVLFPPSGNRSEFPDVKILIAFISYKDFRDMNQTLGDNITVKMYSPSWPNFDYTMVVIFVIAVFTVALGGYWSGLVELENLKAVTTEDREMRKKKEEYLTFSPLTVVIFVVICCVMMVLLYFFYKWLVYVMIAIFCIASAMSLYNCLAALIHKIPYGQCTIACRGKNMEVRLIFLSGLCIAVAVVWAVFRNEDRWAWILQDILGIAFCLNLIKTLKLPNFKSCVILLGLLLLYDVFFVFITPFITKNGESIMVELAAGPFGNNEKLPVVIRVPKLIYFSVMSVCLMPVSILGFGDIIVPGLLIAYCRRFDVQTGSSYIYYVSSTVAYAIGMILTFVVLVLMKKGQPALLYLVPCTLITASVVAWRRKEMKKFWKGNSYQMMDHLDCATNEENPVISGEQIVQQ
Assay: Inhibition of human SPPL2A expressed in human U2OS cells assessed as nuclear mask transferring to EGFP channel using EGFP-labeled TNFalpha (aa1-76) NTF as substrate and measured after 24 hrs by Hoechst staining based translocation assay
Type: cell-based

`CC(C)C(=O)Nc1nc(Cl)c(NC(=O)C[C@@H](C)C(=O)N[C@@H]2C(=O)N3CCCN3Cc3ccccc32)s1` was tested, and the IC50 was 1 nM.
